Data from US8158850B2, “Method to enhance yield and purity of hybrid crops” (priority 2007, dated 2012).
Values joined by “and” are separate entries in the source; they are usually repeats but may differ in a detail not shown here. Identical values can stand only once.

Legend:
Format in all cases: in vivo, corn (Zea mays)
[1] = system: hybrid seed production field, GHS1 or GHS2 female parent with MON88017 or nk603 male parent; assay: Yield of the hybrid seed harvested from female rows of glyphosate-treated GHS fields; settings: for average yield of hybrid seed: GHS1 or GHS2 female, glyphosate V8 and V10 at 22 oz/ac, CMS-nk603 comparator yield 29.05 kg; for Average Wt (kg), yield of the hybrid seed: glyphosate treated V8-V10; for Total wt (KG), yield of the hybrid seed: glyphosate treated V8-V10 (22 oz/ac), seed harvested from female rows
Description: The yield of hybrid seed is important for maintaining profitability in hybrid seed production systems. […] GHS1 and GHS2 are used as the female parent in a hybrid seed production field with MON88017 or nk603 as the male parent. The GHS fields were treated with glyphosate (V8 and V10 at 22 oz/ac) and the seed harvested from the female rows. […] The average yield is 29.72 kilograms (kg) and 33.39 kg, respectively compared to the CMS-nk603 yield of 29.05 kg.

[2] = system: transgenic corn event GHS3 (LH198 germplasm crossed to LH287); assay: Percent anther extrusion (AE %) at silk emergence after glyphosate treatment, field split plot test; settings: Event GHS-3
Description: (§1) Corn plants transformed with the DNA construct are produced and unique events that have the desired glyphosate tolerance phenotype are selected by treatment with glyphosate a various growth stages and at various rates of glyphosate. Optimal tassel and anther sensitivity to glyphosate can be determined by treatment with an effective dose of glyphosate during corn plant growth and then measuring the pollen shed or anther extrusion. Rapidly maturing corn inbred lines may have early tassel development and glyphosate treatments and rates can be adjusted as needed to produce male sterility in these inbred lines. Transgenic events for the glyphosate hybrid system were designated as event GHS1, GHS2 and GHS3, and selected by various glyphosate treatments to determine the rates and timing of glyphosate that provide the desired level of male sterility as measured by percent anther extrusion. Glyphosate was applied to a field containing the events using the following parameters: • Nozzle: Tee Jet Air Induction (AI) 110015-VS broadcast (green plus green adaptor) spaced on 30″ centers • GPA: 10-12 gallons per acre (GPA) • PSI: 30-35 pounds per square inch • Speed: 2-2.5 MPH • Nozzle Height: 16-18″ above “cup” of the whorl • Useful Conversions:
(§2) • Roundup Ultra®=3 lb acid equivalent (ae)/gal or 32 oz=0.75 lb ae/[…] • Roundup WeatherMax®—22 oz/acre=0.75 lb ae/acre • Nozzle calibration: Determine GPM (gallon per minute) output—Select nozzles and set PSI as specified above. Insure screens are all the same style and size. Collect output (30 sec minimum) of every nozzle at engine operating RPM equivalent to field conditions. Replicate 3 times for consistency and replace any nozzle with greater than +5% variation compared to other nozzles. Repeat until all nozzles are consistent. • Tractor speed—Determine sprayer speed in mph at above spray RPM. Measure off known distance (i.e. 100′) and measure 3 times for consistency. • Calibration of application equipment—The following formula was used to calculate spray output in GPA: GPA=5940×GPM (per nozzle), MPH×W; wherein W=Nozzle spacing (in inches) for broadcast spraying.
(§3) Transgenic events GHS1, GHS2, and GHS3 were treated with one or two applications of glyphosate (Roundup WeatherMax®) over the corn development stages V8-V12 (vegetative 8 leaf—vegetative 12 leaf). These development stages also correlate with pollen development in most inbred corn varieties. In this example, the transgenic events are in an LH198 germplasm crossed to LH287. The fertility score is a measure of the percent risk of anther extrusion (AE) observed at the time of silk emergence from the corn ear. The three events and a LH198DMSRR2 control (CMS germplasm with glyphosate tolerance) were treated with six glyphosate treatments (Table 4). The glyphosate treatments are single applications of 0.75 lb ae/ac at V8 stage (Trt 1), 0.75 lb ae/ac at V10 stage (Trt 2) and 0.54 lb ae/ac at V12 stage (Trt 3), and double applications of 0.75 lb ae/ac at V8 followed by 0.54 lb ae/ac at V12 (Trt 4), 0.75 lb ae/ac at V10 followed by 0.54 lb ae/ac at V12 (Trt 5), and 0.75 lb ae/ac at V8 followed by 0.75 lb ae/ac at V10 (Trt 6). The test was set up as a split plot design with 2 row plots and the glyphosate treatments applied in strips over all of the replications. FIG. 1 illustrates AE % as averaged across all spray treatments across each test plot and event.

[3] = system: transgenic corn event GHS1 (LH198 germplasm crossed to LH287); assay: as above; settings: Event GHS-1
Description: as §1, §2, §3

[4] = system: transgenic corn event GHS2 (LH198 germplasm crossed to LH287); assay: as above; settings: Event GHS-2
Description: as §1, §2, §3

[5] = system: LH198DMSRR2 control (CMS germplasm with glyphosate tolerance); assay: as above
Description: as §1, §2, §3

[6] = Trt 4: 0.75 lb ae/ac at V8 followed by 0.54 lb ae/ac at V12
[7] = Trt 5: 0.75 lb ae/ac at V10 followed by 0.54 lb ae/ac at V12
[8] = Trt 6: 0.75 lb ae/ac at V8 followed by 0.75 lb ae/ac at V10

O=C(O)CNCP(=O)(O)O [glyphosate, n-phosphonomethylglycine]
average yield of hybrid seed ([1]; MON88017 male): 29.72 kg
average yield of hybrid seed ([1]; nk603 male): 33.39 kg
Average Wt (kg), yield of the hybrid seed ([1]; female GHS1, average over MON88017 and NK603 male parents): 29.72 kg
Total wt (KG), yield of the hybrid seed ([1]; female GHS1, male MON88017): 25.9 kg and 31.5 kg
Total wt (KG), yield of the hybrid seed ([1]; female GHS1, male NK603): 32.16 kg and 29.35 kg
Average Wt (kg), yield of the hybrid seed ([1]; female GHS2, average over MON88017 and NK603 male parents): 33.39 kg
Total wt (KG), yield of the hybrid seed ([1]; female GHS2, male MON88017): 27.5 kg and 35.74 kg
Total wt (KG), yield of the hybrid seed ([1]; female GHS2, male NK603): 38.67 kg and 31.66 kg
AE (%) ([2]; Trt 1: 0.75 lb ae/ac at V8): ~5.9%
AE (%) ([2]; Trt 2: 0.75 lb ae/ac at V10): 0.1%
AE (%) [2, 6]: 0.0%
AE (%) [2, 7]: 0.0%
AE (%) [2, 8]: 0.0%
AE (%) ([3]; Trt 2: 0.75 lb ae/ac at V10): 0.0%
AE (%) ([3]; Trt 3: 0.54 lb ae/ac at V12): ~12.1%
AE (%) [3, 6]: 0.0%
AE (%) [3, 7]: 0.0%
AE (%) [3, 8]: 0.0%
AE (%) ([4]; Trt 1: 0.75 lb ae/ac at V8): 0.4%
AE (%) ([4]; Trt 2: 0.75 lb ae/ac at V10): 0.0%
AE (%) ([4]; Trt 3: 0.54 lb ae/ac at V12): ~3.0%
AE (%) [4, 6]: 0.0%
AE (%) [4, 7]: 0.0%
AE (%) [4, 8]: 0.0%
AE (%) ([5]; Trt 1: 0.75 lb ae/ac at V8): 0.1%
AE (%) ([5]; Trt 2: 0.75 lb ae/ac at V10): 0.1%
AE (%) ([5]; Trt 3: 0.54 lb ae/ac at V12): 0.1%
AE (%) [5, 6]: ~0.3%
AE (%) [5, 7]: ~0.3%
AE (%) [5, 8]: 0.0%
